Article PMC4549042, “Targeting procaspase-3 with WF-208, a novel PAC-1 derivative, causes selective cancer cell apoptosis” (Journal of Cellular and Molecular Medicine, 2015)
Like-named read-outs stand apart in the source and are kept apart here.

Columns and labels:
PBL = test: MTT cytotoxicity in human peripheral blood lymphocytes; type: cell-based; details: 72 hrs
Experimental: Human peripheral blood lymphocytes were obtained as described previously. In brief, after diluting blood with PBS, lymphocytes were isolated by centrifugation over a density gradient of lymphocytes extracting solution for 15 min. at 280 × g. The cells were harvested, washed with PBS twice, and suspended in complete RPMI 1640 (Gibco, New York, USA) with 10% foetal bovine serum (Gibco, New York, USA).
(§1) The cell viability effects of the tested compounds were determined by MTT assay. Cells (1 × 10^4 cells/100 μl/well) were seeded into 96-well culture plates. After overnight incubation, cells were treated with various concentrations of compounds for 72 hrs. Subsequently, 10 μl MTT solution (2.5 mg/ml in PBS) was added to each well, than the cells were incubated for an additional 3–4 hrs at 37°C. After centrifugation (200 × g, 10 min.), the medium with MTT was aspirated, followed by the addition of 100 μl DMSO. The optical density of each well was measured at 570 nm with a Biotek Synergy TM HT Reader.

[1] = tested on: MCF-7 cells transfected with procaspase-3; test: Cytotoxicity in MCF-7 cells transfected with procaspase-3; type: cell-based, human; details: different concentrations, vs empty vector
Experimental: as §1
HL-60 cells were transfected with procaspase-3 siRNA (Invitrogen, New York, USA, 100 nmol/l final concentration, Sense siRNA Sequence: GUCUAACUGGAAAACCCAAtt Antisense siRNA Sequence: UUGGGUUUUCCAGUUAGACtt) by Lipofectamine 2000 (Invitrogen) according to the manufacturer’s instructions. Scrambled siRNA (Invitrogen) was control. The cDNA of human procaspase-3 was cloned into pIRES2-EGFP expression vector, and procaspase-3 and EGFP genes were separately expressed. The pIRES2-EGFP and pIRES2-EGFP-procaspase-3 were transiently transfected into MCF-7 cells. Expression of procaspase-3 was verified by western blotting.

HL-60 cell line [2] = test: MTT cell viability assay, HL-60; type: cell-based; details: Homo sapiens, 72 hrs
Experimental: as §1

HL-60 cell line [3] = test: MTT cell viability assay, HL-60; type: cell-based, human; details: HL-60, 10 μM ZnSO4, 24 hrs
[4] = tested on: human malignant cell lines; test: MTT cytotoxicity in fifteen human malignant cell lines; type: cell-based; details: for IC50: Homo sapiens, MTT, 72 hrs
Excerpt: Human malignant cell lines, A549, Colo-205, DU145, NCI-H226, Hep-3B, Hep-G2, K562, MCF-7, U-87, GBC-SD, MDA-MB-435S, PC-3, U-937, HL60, SH-SY5Y and human normal cell lines, MCF-10A and L-02, HUVEC were obtained from the American Type Culture Collection (Manassas, VA, USA) and National Center for Medical Culture Collection (Shanghai, China). They were routinely cultured in RPMI 1640, DMEM or DMEM/F12 (Gibco, New York, USA) supplemented with 10% foetal bovine serum (Gibco, New York, USA) and maintained at 37°C in a humidified incubator with 5% CO2.
as §1

rh-procaspase-3 [5] = biological target: T1, rh-procaspase-3 (Homo sapiens, UniProt P42574); test: Assay of zinc inhibition of procaspase-3 activation; type: biochemical; details: PC3 + 5 μM ZnSO4; read-out: EC50 of procaspase-3 activation in zinc-containing buffer
T1 construct: purchased R&D System (Minneapolis, USA)
T1 sequence (P42574 1-277): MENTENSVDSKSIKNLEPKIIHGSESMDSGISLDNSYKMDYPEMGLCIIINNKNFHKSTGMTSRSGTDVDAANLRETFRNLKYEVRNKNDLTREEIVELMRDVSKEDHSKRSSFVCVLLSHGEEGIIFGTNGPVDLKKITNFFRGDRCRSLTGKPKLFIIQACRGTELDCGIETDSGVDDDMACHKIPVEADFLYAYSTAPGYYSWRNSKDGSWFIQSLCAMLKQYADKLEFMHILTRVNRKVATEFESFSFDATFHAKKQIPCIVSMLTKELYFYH
Experimental: HEPES buffer [with 50 mM HEPES and 300 mM NaCl (pH 7.4)] was treated with Chelex resin to remove trace bivalent cations (including zinc ion). ZnSO4 and different concentration PAC-1 or WF-208 was added to procaspase-3 in HEPES to yield a final concentration of 0.5 μM procaspase-3. After 12 hrs of incubation at 37°C, Ac-DEVD-pNA in buffer [50 mM Hepes (pH 7.4), 100 mM NaCl, 10 mM DTT, 0.1 mM EDTA disodium salt, 0.10% Chaps, 10% glycerol] was added. The final concentration Ac-DEVD-pNA is 0.4 μM. Then the plate was read absorbance at 405 nm in kinetic mode for 10 min. On the other hand, after various time of incubation at 37°C, western blotting was used to detect the cleavage of procaspase-3 [13],[14].

rh-procaspase-3 [6] = biological target: T1, rh-procaspase-3; test: Caspase-3 activation assay (procaspase-3 activation in vitro); type: biochemical; details: rh-procaspase-3, concentrations 0.08–100 μM
Experimental: Procaspase-3 protein was purchased from R&D System (Minneapolis, USA). Procaspase-3 protein was added into 384-well plates. Tested compounds (or DMSO as control) were then added to achieve a final concentration of procaspase-3 of 50 ng/ml. Each plate was incubated for 2 hrs at 37°C. Then caspase-3 peptide substrate (acetyl Asp-Glu-Val-Asp-[…] (Ac-DEVD-pNa), 200 μM) were added. The absorbance of each well was measured at 405 nm in kinetic mode for 10 min [13].

XIAP and survivin mRNA = test: Quantitative PCR of XIAP and survivin mRNA; type: cell-based, human; details: real-time PCR, different concentrations
Experimental: About 1 × 10^6 cells were gathered after pre-treatment with PAC-1 or WF-208 as described previously. Total RNA was isolated using RNeasy Mini Kit (Qiagen, Duesseldorf, Germany) as described by the product’s instruction. One microgram of RNA was reversely transcribed with ReverAid First Stand cDNA Sythesis Kit (Thermo Fisher, Rockford, USA). For quantitative PCR, analysis was carried out by using iQ SYBR Green Supermix (Bio-Rad, West Berkeley, USA) and the CFX96 RT-PCR Detection System (Bio-Rad) as instructed by the manufacturer. Primers were GAPDH reverse primer 5′-[…]-3′ and forward primer 5′-TTGCCGACAGGATGCAGAA-3′; XIAP reverse primer 5′-TTGCCGACAGGATGCAGAA-3′ and forward primer 5′-[…]-3′; Survivin reverse primer 5′-GGAAACTGCGGAGAAAGTG-3′ and forward primer 5′-TAAACCCTGGAAGTGGTGC-3′. The PCR cycle started with 5 min. at 95°C, followed by 35 cycles of 3 steps (30 sec. at 95°C, 25 sec. at 56°C, 20 sec. at 72°C). The result was calculated as 2^−ΔΔCt of real-time fluorescence intensity.

[7] = tested on: mouse primary cortical cell; test: Cytotoxicity in mouse primary cortical neuron cells; type: cell-based; details: neurotoxicity
Experimental: as §1

For O=C(CN1CCN(Cc2nc(-c3ccc(COc4ccc(Cl)cc4)cc3)no2)CC1)N/N=C/c1ccc(OCc2csc(Cc3ccc4c(c3)OCO4)n2)cc1O [C2], the IC50 (PBL) was 743 µM, the “cytotoxic effect in MCF-7 cells transfected with procaspase-3” value [1] was “more sensitive” and the IC50 (HL-60 cell line [2]) was 0.08 µM. For the same molecule, the “cytotoxicity on co-treatment with ZnSO4” value (HL-60 cell line [3]) was “significantly relieved”, the IC50 ([4]; range over the cell lines, read-out: IC50 values against tumour cells) was 0.08 to 12.8 µM and the IC50 ([4]; read-out: overall mean IC50 value in the fifteen malignant cell lines) was 1.66 µM. The “fold increase of cytotoxicity (mean IC50) compared with PAC-1” value ([4]; fifteen malignant cell lines) was ~20 fold, the EC50 (rh-procaspase-3 [5]) was 2.49 µM and the EC50 (rh-procaspase-3 [6]) was 0.56 µM. The “XIAP and survivin mRNA” value (XIAP and survivin mRNA) was “failed to change” and the IC50 [7] was 96.2 µM.
